# Where a name gives a salt, the structure may show the parent alone.
# How the values were obtained:
# [1] = cited from earlier work; for activity taught in U.S. Pat. Nos. 4,871,865 and 4,923,892: Burroughs Wellcome Patents
# [2] = test system: IL-6 secretion in human conjunctival epithelial cells; test: Inhibition of histamine-stimulated IL-6 secretion from cultured human conjunctival epithelial cells (ELISA); assay type: cell-based; conditions: for potency in intact cells / inhibition of secretion compared with receptor binding: IL-6 and IL-8 secretion
# Source text: Methods detailing the preparation of primary epithelial cell cultures and cytokine release studies using these cells have been described. […] Briefly, cultures of human conjunctival epithelial cells were initiated from donor tissues obtained within eight hours post mortem by various eye banks. The tissues were enzymatically digested overnight. Epithelial cells were gently scraped from the tissue surface, dissociated into a single cell suspension, and cultured in keratinocyte growth medium (Clonetics®, San Diego, Calif.). Cells were used only through passage 6. Cultures were maintained in a preconfluent state to prevent differentiation.
# Several compounds with histamine H1 antagonist activity were evaluated for their ability to inhibit secretion of cytokines (IL-6 and IL-8) from cultured human conjunctival epithelial cells in response to histamine stimulation. Cells were plated at 2×10^4 cells/well and cultured overnight at 5% CO2 /37° C. The following day, fresh medium containing test compound was added directly to wells and the cells were incubated for 30 minutes prior to 24-hour stimulation with histamine (30 μM). Three separate culture wells were used for each treatment group. At harvest, supernatants were collected, centrifuged at 200× g, and stored at -20° C. Samples were analyzed for IL-6 and IL-8 by ELISA (R&D Systems, Minneapolis, Minn.) as directed by the manufacturer. The sensitivities of each ELISA are as follows: IL-6 0.7 pg/ml and IL-8 3.0 pg/ml.
# Data derived from the cytokine assays were calculated as mean and standard error (SEM) values which represent the variability among identically treated culture wells. The dose-dependent effect of pharmacological agents and IC50 's were determined by linear regression. Data are expressed as mean ±S.E.M. from 3-5 independent experiments.
# [3] = test system: IL-8 secretion in human conjunctival epithelial cells; test: Inhibition of histamine-stimulated IL-8 secretion from cultured human conjunctival epithelial cells (ELISA); assay type: cell-based; conditions: Epithelial cell, 24 h, read-out: increase of IL-8 secretion above basal levels
# Source text: Methods detailing the preparation of primary epithelial cell cultures and cytokine release studies using these cells have been described. See Gamache, et al., "Secretion of proinflammatory cytokines by human conjunctival epithelial cells," Ocul Immunol Inflamm., 5:117-128 (1997). Briefly, cultures of human conjunctival epithelial cells were initiated from donor tissues obtained within eight hours post mortem by various eye banks. The tissues were enzymatically digested overnight. Epithelial cells were gently scraped from the tissue surface, dissociated into a single cell suspension, and cultured in keratinocyte growth medium (Clonetics®, San Diego, Calif.). Cells were used only through passage 6. Cultures were maintained in a preconfluent state to prevent differentiation. Cells were identified as epithelial by positive keratin staining.
# Several compounds with histamine H1 antagonist activity were evaluated for their ability to inhibit secretion of cytokines (IL-6 and IL-8) from cultured human conjunctival epithelial cells in response to histamine stimulation. Cells were plated at 2×10^4 cells/well and cultured overnight at 5% CO2 /37° C. […] Samples were analyzed for IL-6 and IL-8 by ELISA (R&D Systems, Minneapolis, Minn.) as directed by the manufacturer. […]
# [4] = IL-6 and IL-8 secretion versus H1 binding
structure (smiles),measurement,setting,value
"CN(C)CCC=C1c2ccccc2COc2ccc(/C=C/C(=O)O)cc21 [11-(3-dimethylamino-propylidene)-6,11-dihydrodibenz[b,e]oxepine-2(E)-acrylic acid]","activity taught in U.S. Pat. Nos. 4,871,865 and 4,923,892",[1],antihistaminic and antiasthmatic activity
"CN(C)CCC=C1c2ccccc2COc2ccc(C(=O)O)cc21 [11-(3-dimethylaminopropylidene)-6,11-dihydrodibenz[b,e]oxepine-2-carboxylic acid]","activity taught in U.S. Pat. Nos. 4,871,865 and 4,923,892",[1],antihistaminic and antiasthmatic activity
"c1ccc(CN(CC2=NCCN2)c2ccccc2)cc1 [Antazoline, 4,5-Dihydro-N-phenyl-N-(phenylmethyl)-1H-imidazole-2-methanamine]",less potent inhibitor of IL-6 and IL-8 secretion than predicted from histamine H1-receptor binding affinity,[2]; [4],20-140 fold
"CCOCCn1c(N2CCCN(C)CC2)nc2ccccc21 [Emedastine, 1H-Benzimidazole,1-(2-ethoxyethyl)-2-(hexahydro-4-methyl-1H-1,4-diazepin-1-yl),(E)-2-butenedioate (1:2)]",potency in intact cells / inhibition of secretion compared with receptor binding,[2],consistent with its activity determined in receptor binding assays
"C[C@@H]1CN([C@H]2CC[C@](C#N)(c3ccc(F)cc3)CC2)CC[C@]1(C(=O)O)c1ccccc1 [Levocabastine, (-)-trans-1-[cis-4-Cyano-4-(p-fluorophenyl)cyclohexyl]-3-methyl-4-phenylisonipecotic acid monohydrochloride]",potency in intact cells / inhibition of secretion compared with receptor binding,[2],at a level consistent with its H1 -receptor binding affinity
"CN(C)CC/C=C1/c2ccccc2COc2ccc(CC(=O)O)cc21 [Olopatadine, Z-11-(3-Dimethylaminopropylidene)-6,11-dihydrodibenz[b,e]oxepin-2-acetic acid]",more potent inhibitor of cytokine secretion than predicted from binding data,[2]; [4],approximately 10 fold
same,"activity taught in U.S. Pat. No. 5,116,863","[1]; Kyowa patent, Wistar male rats",anti-allergic and anti-inflammatory activity
"CN(C)CCC(c1ccccc1)c1ccccn1 (stereo not shown) [Pheniramine, N,N-Dimethyl-γ-phenyl-2-pyridine-propanamine]",less potent inhibitor of IL-6 and IL-8 secretion than predicted from histamine H1-receptor binding affinity,[2]; [4],20-140 fold
NCCc1c[nH]cn1 [histamine],fold induction at 30 µM,"[2]; Homo sapiens, Epithelial cell, 24 h, read-out: increase of IL-6 secretion above basal levels",1.59 ± 0.19
same,fold induction at 30 µM,[3],1.8 ± 0.28

# From patent US6174914A, “Method of inhibiting cytokine release from human ocular cells” (Alcon Laboratories, Inc., priority 1999, dated 2001)
